Consider 27 compounds from patent US20240174674A1, “NITROGEN-CONTAINING POLYCYCLIC FUSED RING COMPOUND, PHARMACEUTICAL COMPOSITION THEREOF, PREPARATION METHOD THEREFOR, AND USE THEREOF” (APPLIED PHARMACEUTICAL SCIENCE, INC., priority 2021, published 2024).

Where two headings read alike, the source gives them in different places.

The target of the test is RET G810R (Homo sapiens (Human), UniProt P07949, G810R). Nature of the test: HTRF KinEASE-TK kinase activity test, RET G810R. To be noted: for inhibitory activity against RET G810R relative to that of selpercatinib (LOXO-292): fold versus selpercatinib (LOXO-292). (In general: Time-resolved FRET reads energy transfer from a long-lived donor to a nearby acceptor.)
Sequence of RET G810R (P07949 29-1114 G810R): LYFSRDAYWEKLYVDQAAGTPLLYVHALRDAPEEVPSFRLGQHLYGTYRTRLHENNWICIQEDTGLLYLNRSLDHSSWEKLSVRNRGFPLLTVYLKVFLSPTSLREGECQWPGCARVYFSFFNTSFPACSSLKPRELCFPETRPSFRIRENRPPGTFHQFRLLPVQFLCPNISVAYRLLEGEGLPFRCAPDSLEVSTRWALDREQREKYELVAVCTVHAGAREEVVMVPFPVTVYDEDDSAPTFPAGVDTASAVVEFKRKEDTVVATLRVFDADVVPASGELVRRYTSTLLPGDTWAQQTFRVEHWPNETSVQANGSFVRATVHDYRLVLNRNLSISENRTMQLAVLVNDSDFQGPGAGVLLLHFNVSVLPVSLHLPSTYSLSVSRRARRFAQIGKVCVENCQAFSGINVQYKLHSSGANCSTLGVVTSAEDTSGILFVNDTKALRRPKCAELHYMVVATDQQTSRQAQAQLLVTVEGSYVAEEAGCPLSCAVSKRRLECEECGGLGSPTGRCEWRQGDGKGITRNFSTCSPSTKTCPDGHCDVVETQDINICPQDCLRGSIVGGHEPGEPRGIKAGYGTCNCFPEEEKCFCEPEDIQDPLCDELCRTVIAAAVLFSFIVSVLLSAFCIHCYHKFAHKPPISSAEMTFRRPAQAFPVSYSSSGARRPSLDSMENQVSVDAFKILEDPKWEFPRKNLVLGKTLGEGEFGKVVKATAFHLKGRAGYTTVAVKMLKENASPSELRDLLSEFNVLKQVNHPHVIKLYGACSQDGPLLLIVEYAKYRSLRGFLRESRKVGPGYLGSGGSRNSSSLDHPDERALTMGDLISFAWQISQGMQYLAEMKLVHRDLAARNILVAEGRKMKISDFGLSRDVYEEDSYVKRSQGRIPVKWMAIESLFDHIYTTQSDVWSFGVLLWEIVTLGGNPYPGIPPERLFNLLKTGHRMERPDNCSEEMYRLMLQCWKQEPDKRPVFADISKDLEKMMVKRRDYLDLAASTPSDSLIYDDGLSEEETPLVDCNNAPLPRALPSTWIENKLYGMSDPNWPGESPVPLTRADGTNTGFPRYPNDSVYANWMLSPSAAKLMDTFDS
Where [1] appears, read: read-out: RET G810R IC50, HTRF kinase assay.

As a reminder, the IC50 is the point on the concentration scale where inhibition reaches its midpoint.

In the case of `CCOc1cc(-c2ccc(N3CC[C@H](NC(=O)c4ncccc4F)[C@H](O)C3)nc2)c2c3cn[nH]c3nn2c1` [Compound 286, N-((3R,4S)-1-(5-(6-ethoxy-1H-pyrazolo[3′,4′:3,4]pyrazolo[1,5-α]pyridin-4-yl)pyridin-2-yl)piperidin-3-hydroxypiperidin-4-yl)-3-fluoropicolinamide], under setting [1], the IC50 was found to be 10.3 nM. For `CCOc1cc(-c2ccc(N3CC[C@H](NC(=O)c4c(C)cccc4Cl)[C@@H](N)C3)nc2)c2c3cn[nH]c3nn2c1` [Compound 48, N-((3S,4S)-3-amino-1-(5-(6-ethoxy-1H-pyrazolo[3′,4′:3,4]pyrazolo[1,5-α]pyridin-4-yl)pyridin-2-yl)piperidin-4-yl)-2-chloro-6-methylbenzamide], the “inhibitory activity against RET G810R relative to that of selpercatinib (LOXO-292)” value is recorded as no less than 10 times. Under setting [1], the concentration for half-maximal inhibition (IC50) came to 2.9 nM. Regarding `COc1cc(-c2ccc(N3CC4CC(C3)N4Cc3ccc(OC)nc3)nc2)c2c3cn[nH]c3nn2c1` [Compound 235], the “inhibitory activity against RET G810R relative to that of selpercatinib (LOXO-292)” value was no less than 10 times. Besides, under setting [1], the IC50 was 2.2 nM. In the same order, the values of `O=C(N[C@H]1CCN(c2ccc(-c3cc(OCC(F)F)cn4nc5[nH]ncc5c34)cn2)C[C@H]1O)c1c(F)cccc1F` [Compound 268, N-((3R,4S)-1-(5-(6-(2,2-difluoroethoxy)-1H-pyrazolo[3′,4′:3,4]pyrazolo[1,5-α]pyridin-4-yl)pyridin-2-yl)-3-hydroxypiperidin-4-yl)-2,6-difluorobenzamide] are no less than 10 times and 2.8 nM. Turning to `CCOc1cc(-c2ccc(N3CC4(CCN(C(=O)c5c(F)cccc5Cl)C4)C3)nc2)c2c3cn[nH]c3nn2c1` [Compound 189], under setting [1], the IC50 was 15.3 nM. Still for that read-out and setting: the figure for `CCOc1cc(-c2ccc(N3C[C@@H]4[C@H](C3)[C@@H]4NC(=O)c3c(F)cccc3Cl)nc2)c2c3cn[nH]c3nn2c1` [Compound 172, 2-chloro-N-((1R,5S,6R)-3-(5-(6-ethoxy-1H-pyrazolo[3′,4′:3,4]pyrazolo[1,5-α]pyridin-4-yl)pyridin-2-yl)-3-azabicyclo[3.1.0]hexan-6-yl)-6-fluorobenzamide] is 8.2 nM. Still for that read-out and setting: the figure for `CCOc1cc(-c2ccc(N3C[C@@H]4[C@H](C3)[C@@H]4NCc3ccc(OC)nc3)nc2)c2c3cn[nH]c3nn2c1` [Compound 173] is 12.5 nM. For `CCOc1cc(-c2ccc(N3CCC(CO)(NC(=O)c4ncccc4Cl)CC3)nc2)c2c3cn[nH]c3nn2c1` [Compound 12, 3-chloro-N-(1-(5-(6-ethoxy-1H-pyrazolo[3′,4′:3,4]pyrazolo[1,5-α]pyridin-4-yl)pyridin-2-yl)-4-(hydroxymethyl)piperidin-4-yl)picolinamide], the “inhibitory activity against RET G810R relative to that of selpercatinib (LOXO-292)” value is no less than 10 times. Besides, the IC50 under setting [1] was determined as 2.1 nM.

`CCOc1cc(-c2ccc(N3CCC(CO)(C(=O)NCC(C)C)CC3)nc2)c2c3cn[nH]c3nn2c1` [Compound 87, 1-(5-(6-ethoxy-1H-pyrazolo[3′,4′:3,4]pyrazolo[1,5-α]pyridin-4-yl)pyridin-2-yl)-4-(hydroxymethy 1)-N-isobutylpiperidine-4-carboxamide]: the IC50 under setting [1] came out at 9.4 nM. Turning to `CCOc1cc(-c2ccc(N3CC[C@H](NC(=O)c4c(F)cccc4Cl)[C@H](O)C3)nc2)c2c3cn[nH]c3nn2c1` [Compound 275, N-((3R,4S)-1-(5-(6-ethoxy-1H-pyrazolo[3′,4′:3,4]pyrazolo[1,5-α]pyridin-4-yl)pyridin-2-yl)-3-hydroxypiperidin-4-yl)-2-chloro-6-fluorobenzamide], the “inhibitory activity against RET G810R relative to that of selpercatinib (LOXO-292)” value is reported as no less than 10 times. For the same compound, under setting [1], the IC50 was 0.8 nM. With `CCOc1cc([C@H]2CC[C@](OC)(C(=O)N[C@@H](C)c3ccc(-n4cc(F)cn4)nc3)CC2)c2c3cn[nH]c3nn2c1` [Compound 258, (1S,4R)-4-(6-ethoxy-1H-pyrazolo[3′,4′:3,4]pyrazolo[1,5-α]pyridin-4-yl)-N—((S)-1-(6-(4-fluoro-1H-pyrazol-1-yl)pyridin-3-yl)ethyl)-1-methoxycyclohexane-1-carboxamide], the half-maximal inhibitory concentration (IC50) under setting [1] turned out to be 9.9 nM. As for `CCOc1cc(-c2ccc(N3CC[C@H](NC(=O)C4(F)CC4)[C@H](O)C3)nc2)c2c3cn[nH]c3nn2c1` [Compound 282, N-((3R,4S)-1-(5-(6-ethoxy-1H-pyrazolo[3′,4′:3,4]pyrazolo[1,5-α]pyridin-4-yl)pyridin-2-yl)-3-hydroxypiperidin-4-yl)-1-fluorocyclopropane-1-carboxamide], the “inhibitory activity against RET G810R relative to that of selpercatinib (LOXO-292)” value was no less than 10 times. Under setting [1], the half-inhibitory concentration (IC50) came out at 3.5 nM. As for `CCOc1cc(-c2ccc(N3CC4CCC(C3)N4Cc3ccc(OC)nc3)nc2)c2c3cn[nH]c3nn2c1` [Compound 156, 6-ethoxy-4-(6-((1R,5S)-8-((6-methoxypyridin-3-yl)methyl)-3,8-diazabicyclo[3.2.1]octan-3-yl)pyridin-3-yl)-1H-pyrazolo[3′,4′:3,4]pyrazolo[1,5-α]pyrazole], the concentration for half-maximal inhibition (IC50) under setting [1] came to 11.4 nM. Regarding `CCOc1cc(-c2cnc(N3CCC(C)(NC(=O)c4c(F)ccc(F)c4F)CC3)cn2)c2c3cn[nH]c3nn2c1` [Compound 57, N-(1-(5-(6-ethoxy-1H-pyrazolo[3′,4′:3,4]pyrazolo[1,5-α]pyridin-4-yl)pyrazin-2-yl)-4-methylpiperidin-4-yl)-2,3,6-trifluorobenzamide], under setting [1], the IC50 came to 6.9 nM. Consider `COC(=O)COc1cc(-c2ccc(N3CC4CC(C3)N4Cc3ccc(OC)nc3)nc2)c2c3cn[nH]c3nn2c1` [Compound 228, Methyl 2-((4-(6-(6-((6-methoxypyridin-3-yl)methylene)-3,6-diazabicyclo[3.1.1]heptan-3-yl)pyridin-3-yl)-1H-pyrazolo[3′,4′:3,4]pyrazolo[1,5-α]pyridin-6-yl)oxy)acetate], for which the IC50 under setting [1] was 5.7 nM. On the same count and under the same terms, the figure for `C=CC(=O)N1C2CC1CN(c1ccc(-c3cc(OCC)cn4nc5[nH]ncc5c34)cn1)C2` [Compound 250, 1-(3-(5-(6-ethoxy-1H-pyrazolo[3′,4′:3,4]pyrazolo[1,5-α]pyridin-4-yl)pyridin-2-yl)-3,6-diazabicyclo[3.1.1]heptan-6-yl)prop-2-en-1-one] is 40.8 nM. Regarding `CCOc1cc(-c2ccc(N3CC[C@H](NC(=O)C(C)C(C)C)[C@@H](O)C3)nc2)c2c3cn[nH]c3nn2c1` (some centres unmarked) [Compound 89], the “inhibitory activity against RET G810R relative to that of selpercatinib (LOXO-292)” value is on record as no less than 10 times. Further, the IC50 under setting [1] amounted to 2 nM. For `CCOc1cc(-c2ccc(N3CCC(CN4CCC4)(C(=O)NCC(C)C)CC3)nc2)c2c3cn[nH]c3nn2c1` [Compound 36, 4-(azetidin-1-ylmethyl)-1-(5-(6-ethoxy-1H-pyrazolo[3′,4′:3,4]pyrazolo[1,5-α]pyridin-4-yl)pyridin-2-yl)-N-isobutylpiperidine-4-carboxamide], the concentration for half-maximal inhibition (IC50) under setting [1] came to 5.7 nM. Take `CCOc1cc(-c2ccc(N3CCC(CO)(NC(=O)c4cc(F)ccc4F)CC3)nc2)c2c3cn[nH]c3nn2c1` [Compound 291, N-(1-(5-(6-ethoxy-1H-pyrazolo[3′,4′:3,4]pyrazolo[1,5-α]pyridin-4-yl)pyridin-2-yl)-4-(hydroxymethyl)piperidin-4-yl)-2,5-difluorobenzamide]: the “inhibitory activity against RET G810R relative to that of selpercatinib (LOXO-292)” value is no less than 10 times. For the same compound, the IC50 under setting [1] is 1.6 nM. `CCOc1cc(-c2ccc(N3CC[C@H](NCc4c(F)cccc4Cl)[C@@H](O)C3)nc2)c2c3cn[nH]c3nn2c1` [Compound 107, (3S,4S)-4-((2-chloro-6-fluorobenzyl)amino)-1-(5-(6-ethoxy-1H-pyrazolo[3′,4′:3,4]pyrazolo[1,5-α ]pyridin-4-yl)pyridin-2-yl)piperidin-3-ol] returned an IC50 of 14.5 nM. Regarding `CCOc1cc(-c2ccc(N3C[C@H]4C[C@H](NC(=O)c5c(F)cccc5Cl)C[C@H]4C3)nc2)c2c3cn[nH]c3nn2c1` [Compound 174], the “inhibitory activity against RET G810R relative to that of selpercatinib (LOXO-292)” value is no less than 10 times. For the same compound, the IC50 under setting [1] came to 3.5 nM. For the compound `CCOc1cc(-c2ccc(N3C[C@H]4CN(Cc5ccc(OC)nc5)C[C@H]4C3)nc2)c2c3cn[nH]c3nn2c1` [Compound 152, 6-ethoxy-4-(6-((3aR,6aS)-5-((6-methoxypyridin-3-yl)methylene)-hexahydropyrrolo[3,4-c]pyrrol-2(1H)-yl)pyridin-3-yl)-1H-pyrazolo[3′,4′:3,4]pyrazolo[1,5-α]pyridine], the IC50 under setting [1] was 4.1 nM. As for `CCOc1cc(-c2ccc(N3CC[C@H](NC(=O)c4c(F)ccc(F)c4F)[C@H](O)C3)nc2)c2c3cn[nH]c3nn2c1` [Compound 274, N-((3R,4S)-1-(5-(6-ethoxy-1H-pyrazolo[3′,4′:3,4]pyrazolo[1,5-α]pyridin-4-yl)pyridin-2-yl)-3-hydroxypiperidin-4-yl)-2,3,6-trifluorobenzamide], the “inhibitory activity against RET G810R relative to that of selpercatinib (LOXO-292)” value is listed as no less than 10 times. For the same compound, the IC50 under setting [1] was found to be 1.3 nM.

For `CCOc1cc(-c2cnc(N3CCC(C)(NC(=O)c4ncccc4Cl)CC3)cn2)c2c3cn[nH]c3nn2c1` [Compound 59, 3-chloro-N-(1-(5-(6-ethoxy-1H-pyrazolo[3′,4′:3,4]pyrazolo[1,5-α]pyridin-4-yl)pyrazin-2-yl)-4-methylpiperidin-4-yl)-2-picolinamide], the IC50 was determined as 4.6 nM. With `CCOc1cc(-c2ccc(N3CCC(C)(S(=O)(=O)CC(C)C)CC3)nc2)c2c3cn[nH]c3nn2c1` [Compound 33, 6-ethoxy-4-(6-(4-(isobutylsulfonyl)-4-methylpiperidin-1-yl)pyridin-3-yl)-1H-pyrazolo[3′,4′:3,4]p yrazolo[1,5-α]pyridine], the “inhibitory activity against RET G810R relative to that of selpercatinib (LOXO-292)” value is recorded as no less than 10 times. In addition, the half-inhibitory concentration (IC50) under setting [1] came to 2.5 nM.

Consider `CCOc1cc(-c2ccc(N3CCC4(CCCN(C(=O)c5c(F)cccc5Cl)C4)CC3)nc2)c2c3cn[nH]c3nn2c1` [Compound 214], for which the IC50 under setting [1] is 47.3 nM. The same measure, in the same setting: the figure for `CCOc1cc(-c2ccc(N3CC4COCC(C3)N4C(=O)c3c(F)cccc3Cl)nc2)c2c3cn[nH]c3nn2c1` [Compound 169, N-(7-(5-(6-ethoxy-1H-pyrazolo[3′,4′:3,4]pyrazolo[1,5-α]pyridin-4-yl)pyridin-2-yl)-3-oxa-7,9-azabicyclo[3.3.1]nonan-9-yl)-2-chloro-6-fluorobenzamide] is 4.8 nM.
